Data reported in patent US20050197350A1, “Novel quinoline, tetrahydroquinazoline, and pyrimidine derivatives and methods of treatment related to the use thereof” (TAISHO PHARMACEUTICAL CO., LTD., priority 2003, published 2005).
Where a name gives a salt, the structure may show the parent alone.

Target: MCH receptor (Homo sapiens, UniProt Q99705)
Experiment: High throughput functional screening FLIPR/FDSS6000 (intracellular Ca2+ evoked by MCH)
Assay type: cell-based
Details: FLIPR/FDSS, antagonist activity vs 50 nM MCH; class by percent of control at 10^−7 M or IC50; read-out: class
Excerpt: High Throughput Functional Screening: FLIPR™
This assay utilized a non-endogenous, constitutively active version of the MCH receptor.
The concentration of free Ca^2+ in the cytosol of any cell is extremely low, whereas its concentration in the extracellular fluid and endoplasmic reticulum (ER) is very high. Thus, there is a large gradient tending to drive Ca^2+ into the cytosol across both the plasma membrane and ER. The FLIPR™ and FDSS6000™ systems (Molecular Devices Corporation, […] Photonics K.K.) are designed to perform functional cell-based assays, such as the measurement of intracellular calcium for high-throughput screening. The measurement of fluorescent is associated with calcium release upon activation of the Gq-coupled receptors.
Fluorometric Imaging Plate Reader system was used to allow for rapid, kinetic measurements of intracellular fluorescence in 96 well microplates (or 384 well microplates). Simultaneous measurements of fluorescence in all wells can be made by FLIPR or FDSS6000™ every second with high sensitivity and precision. These systems are ideal for measuring cell-based functional assays such as monitoring the intracellular calcium fluxes that occur within seconds after activation of the Gq coupled receptor.
Briefly, the cells are seeded into 96 well at 5.5×10^4 cells/well with complete culture media (Dulbecco's Modified Eagle Medium with 10% fetal bovine serum, 2 mM L-glutamine, 1 mM sodium pyruvate and 0.5 mg/ml G418, pH 7.4) for the assay next day. On the day of assay, the media is removed and the cells are incubated with 100 μl of loading buffer (4 μM Fluo4-AM in complete culture media containing 2.5 mM Probenicid, 0.5 mg/ml and 0.2% bovine serum albumin) in 5% CO2 incubator at 37° C. for 1 hr. The loading buffer is removed, and the cells are washed with wash buffer (Hank's Balanced Salt Solution containing 2.5 mM Probenicid, 20 mM HEPES, 0.5 mg/ml and 0.2% bovine serum albumin, pH 7.4)). One hundred fifty μl of wash buffer containing various concentrations of test compound is added to the cells, and the cells are incubated in 5% CO2 incubator at 37° C. for 30 min. […] 530 nm for 290 second. When antagonist activity of compound is tested, 50 nM of MCH is used.
Use of FLIPR™ and FDSS6000™ can be accomplished by following manufacturer's instruction (Molecular Device Corporation and […] Photonics K.K.).

Row | IC50 [nM] | Compound
1 | 50 to 200 | Cc1cnc(N[C@H]2CC[C@@H](NC(=O)c3cccnc3S(=O)(=O)c3cccc(Cl)c3)CC2)nc1N(C)C [Example 3283, 2-[(3-chlorophenyl)sulfonyl]-N-(cis-4-{[4-(dimethylamino)-5-methylpyrimidin-2-yl]amino}cyclohexyl)nicotinamide]
2 | 50 to 200 | Cc1cnc(N[C@H]2CC[C@@H](C(=O)N[C@H](C)c3ccc(OC(F)(F)F)cc3)CC2)nc1N(C)C [Example 3303, cis-4-{[4-(dimethylamino)-5-methylpyrimidin-2-yl]amino}-N-{(1R)-1-[4-(trifluoromethoxy)phenyl]ethyl}-cyclohexanecarboxamide]
3 | > 200 | Cc1cc(N(C)C)nc(N[C@H]2CC[C@@H](NC(=O)c3cccnc3S(=O)(=O)c3ccc(Br)cc3)CC2)n1 [Example 3374, 2-[(4-bromophenyl)sulfonyl]-N-(cis-4-{[4-(dimethylamino)-6-methylpyrimidin-2-yl]amino}cyclohexyl)nicotinamide]
4 | > 200 | COc1cccc(S(=O)(=O)c2ncccc2C(=O)N[C@H]2CC[C@@H](Nc3nc(C)cc(N(C)C)n3)CC2)c1 [Example 3379, N-(cis-4-{[4-(dimethylamino)-6-methylpyrimidin-2-yl]amino}cyclohexyl)-2-[(3-methoxyphenyl)sulfonyl]-nicotinamide]
5 | 50 to 200 | Cc1cnc(N[C@H]2CC[C@@H](NC(=O)Nc3ccc(Cl)c(Cl)c3)CC2)nc1N(C)C [Example 3337, N-(3,4-dichlorophenyl)-N′-(cis-4-{[4-(dimethylamino)-5-methylpyrimidin-2-yl]amino}cyclohexyl)urea]
6 | > 200 | Cc1cc(N(C)C)nc(N[C@H]2CC[C@@H](C(=O)NC(C)(C)c3cc(C(F)(F)F)cc(C(F)(F)F)c3)CC2)n1 [Example 3275, cis-N-{1-[3,5-bis(trifluoromethyl)phenyl]-1-methylethyl}-4-{[4-(dimethylamino)-6-methylpyrimidin-2-yl]amino}cyclohexanecarboxamide]
7 | < 50 | CCN(C(=O)N[C@H]1CC[C@@H](Nc2ncc(C)c(N(C)C)n2)CC1)c1ccc(OC(F)(F)F)cc1 [Example 3351, N′-(cis-4-{[4-(dimethylamino)-5-methylpyrimidin-2-yl]amino}cyclohexyl)-N-ethyl-N-[4-(trifluoromethoxy)-phenyl]urea]
8 | 50 to 200 | Cc1cnc(N[C@H]2CC[C@@H](NC(=O)c3cccnc3S(=O)(=O)c3ccccc3Cl)CC2)nc1N(C)C [Example 3284, 2-[(2-chlorophenyl)sulfonyl]-N-(cis-4-{[4-(dimethylamino)-5-methylpyrimidin-2-yl]amino}cyclohexyl)nicotinamide]
9 | < 50 | CCN(C(=O)N[C@H]1CC[C@@H](Nc2ncc(C)c(N(C)C)n2)CC1)c1ccc(Cl)cc1 [Example 3353, N-(4-chlorophenyl)-N′-(cis-4-{[4-(dimethylamino)-5-methylpyrimidin-2-yl]amino}cyclohexyl)-N-ethylurea]
10 | 50 to 200 | Cc1cc(N[C@H]2CC[C@@H](C(=O)N[C@H](C)c3ccccc3C(F)(F)F)CC2)nc2ccccc12 [Example 3313, cis-4-[(4-methylquinolin-2-yl)amino]-N-{(1R)-1-[2-(trifluoromethyl)phenyl]ethyl}cyclohexanecarboxamide]
11 | 50 to 200 | Cc1cnc(N[C@H]2CC[C@@H](NC(=O)NCc3ccccc3)CC2)nc1N(C)C [Example 3341, N-benzyl-N′-(cis-4-{[4-(dimethylamino)-5-methylpyrimidin-2-yl]amino}cyclohexyl)urea]
12 | 50 to 200 | Cc1cnc(N[C@H]2CC[C@@H](NC(=O)Nc3ccc(Cl)cc3)CC2)nc1N(C)C [Example 3333, N-(4-chlorophenyl)-N′-(cis-4-{[4-(dimethylamino)-5-methylpyrimidin-2-yl]amino}cyclohexyl)urea]
13 | 50 to 200 | Cc1cnc(N[C@H]2CC[C@@H](NC(=O)Nc3ccc(F)c(F)c3)CC2)nc1N(C)C [Example 3327, N-(3,4-difluorophenyl)-N′-(cis-4-{[4-(dimethylamino)-5-methylpyrimidin-2-yl]amino}cyclohexyl)urea]
14 | > 200 | Cc1cc(N(C)C)nc(N[C@H]2CC[C@@H](NC(=O)N(C)C3(c4ccc(Cl)cc4)CC3)CC2)n1 [Example 3272, N-[1-(4-chlorophenyl)cyclopropyl]-N′-(cis-4-{[4-(dimethylamino)-6-methylpyrimidin-2-yl]amino}cyclohexyl)-N-methylurea]
15 | > 200 | Cc1cnc(N[C@H]2CC[C@@H](NC(=O)c3cccnc3S(=O)(=O)c3ccoc3C)CC2)nc1N(C)C [Example 3290, N-(cis-4-{[4-(dimethylamino)-5-methylpyrimidin-2-yl]amino}cyclohexyl)-2-[(2-methyl-3-furyl)sulfonyl]nicotinamide]

Same assay, conditions: FLIPR/FDSS, antagonist activity vs 50 nM MCH; class by percent of control at 10^−7 M or IC50; table after the classification; read-out: class

Row | IC50 [nM] | Compound
16 | < 50 | COc1cccc(C(=O)N[C@H]2CC[C@@H](Nc3ccc4ccccc4n3)CC2)c1 [Example 3240, 3-Methoxy-N-[cis-4-(quinolin-2-ylamino)-cyclohexyl]-benzamide methanesulfonic acid]
17 | < 50 | O=C(N[C@H]1CC[C@@H](Nc2ccc3ccccc3n2)CC1)C1c2ccccc2Oc2ccccc21 [Example 3043, 9H-Xanthene-9-carboxylic acid [cis-4-(quinolin-2-ylamino)-cyclohexyl]-amide hydrochloride]
18 | < 50 | CN(C)c1ccnc(N[C@H]2CC[C@@H](NC(=O)c3cccnc3Oc3ccc(F)cc3)CC2)n1 [Example 3201, N-[cis-4-(4-Dimethylamino-pyrimidin-2-ylamino)-cyclohexyl]-2-(4-fluoro-phenoxy)-nicotinamide hydrochloride]
19 | 50 to 200 | CCc1cc(N(C)C)nc(N[C@H]2CC[C@@H](NC(=O)c3ccc(F)c(F)c3)CC2)n1 [Example 3231, N-[cis-4-(4-Dimethylamino-6-ethyl-pyrimidin-2-ylamino)-cyclohexyl]-3,4-difluoro-benzamide hydrochloride]
20 | 50 to 200 | CN(C)c1nc(N[C@H]2CC[C@@H](NC(=O)c3ccc(F)c(F)c3)CC2)ncc1Cl [Example 3139, N-[cis-4-(5-Chloro-4-dimethylamino-pyrimidin-2-ylamino)-cyclohexyl]-3,4-difluoro-benzamide hydrochloride]
21 | > 200 | CN(C)c1ccnc(N[C@H]2CC[C@@H](NC(=O)c3ccncc3)CC2)n1 [Example 3210, N-[cis-4-(4-Dimethylamino-pyrimidin-2-ylamino)-cyclohexyl]-isonicotinamide dihydrochloride]
22 | 50 to 200 | CN(C)c1ccnc(N[C@H]2CC[C@@H](NC(=O)c3ccc(F)c(F)c3)CC2)n1 [Example 3197, N-[cis-4-(4-Dimethylamino-pyrimidin-2-ylamino)-cyclohexyl]-3,4-difluoro-benzamide hydrochloride]
23 | > 200 | COc1cc(OC)nc(N[C@H]2CC[C@@H](NC(=O)c3ccc(F)c(F)c3)CC2)n1 [Example 3132, N-[cis-4-(4,6-Dimethoxy-pyrimidin-2-ylamino)-cyclohexyl]-3,4-difluoro-benzamide hydrochloride]
24 | < 50 | O=C(COc1ccc(F)c(Cl)c1)N[C@H]1CC[C@@H](Nc2ccc3ccccc3n2)CC1 [Example 3064, 2-(3-Chloro-4-fluoro-phenoxy)-N-[cis-4-(quinolin-2-ylamino)-cyclohexyl]-acetamide hydrochloride]
25 | < 50 | Cc1cccc(OCC(=O)N[C@H]2CC[C@@H](Nc3cc(C)c4ccccc4n3)CC2)c1 [Example 3084, N-[cis-4-(4-Methyl-quinolin-2-ylamino)-cyclohexyl]-2-m-tolyloxy-acetamide hydrochloride]
26 | < 50 | Cc1ccc(Oc2ncccc2C(=O)N[C@H]2CC[C@@H](Nc3ccc4ccccc4n3)CC2)cc1 [Example 3056, N-[cis-4-(Quinolin-2-ylamino)-cyclohexyl]-2-p-tolyloxy-nicotinamide hydrochloride]
27 | > 200 | CN(C)c1nc(N[C@H]2CC[C@@H](NCc3ccc(Br)cc3OC(F)(F)F)CC2)nc2c1CCCC2 [Example 13, N^2-[cis-4-(4-Bromo-2-trifluoromethoxy-benzyl)-amino-cyclobexyl]-N^4,N^4-dimethyl-5,6,7,8-tetrahydro-quinazoline-2,4-diamine dihydrochloride]
28 | < 50 | COc1cccc(C(=O)N[C@H]2CC[C@@H](Nc3cc(C)c4ccccc4n3)CC2)c1 [Example 3076, 3-Methoxy-N-[cis-4-(4-methyl-quinolin-2-ylamino)-cyclohexyl]-benzamide hydrochloride]
